According to patent US9884863B2, “STAT3 inhibitor” (Board of Regents, The University of Texas System, priority 2013, dated 2018):
Like-named read-outs stand apart in the source and are kept apart here.

Legend:
MCF-7 = experiment: MTS cell proliferation assay, MCF-7; format: cell-based, human
Description: Cancer cells (breast cancer cell lines MCF-7, MDA-MB-361, SKBR3 and MDA-MB-231, pancreatic cancer cell lines AsPC-1. […] Proliferation was measured by treating cells with the 3-(4,5-dimethylthiazol-2-yl)-5-(3-carboxymethoxyphenyl)-2-(4-sulfophenyl)-2H-tetrazolium) (MTS) in a CellTiter 96t AQueous Non-Radioactive Cell Proliferation Assay kit from Promega, Madison, Wis., USA). Absorbance of all wells was determined by measuring OD at 550 nm after 1 hr incubation at 37° C. on a 96-well iMark™ Microplate Absorbance Reader (BioRad, Hercules, Calif.). Each individual compound was tested in quadruplicate wells for each concentration, and the results were reported as mean absorption±s.e.
In Vitro Determination of Effects of Synthesized Compounds on Cancer Cell Proliferation. Cancer cells (breast cancer cell lines MCF-7 and MDA-MB-231, pancreatic cancer cell lines AsPC-1 and Panc-1) were […], 0.01, 0.1, 1, 5, 10, […] Proliferation was measured by treating cells with the 3-(4,5-dimethylthiazol-2-yl)-5-(3-carboxymethoxyphenyl)-2-(4-sulfophenyl)-2H-tetrazolium) (MTS) in a CellTiter 96t Aqueous Non-Radioactive Cell Proliferation Assay kit (Promega, Madison, Wis., USA). Absorbance of all wells was determined by measuring OD at 550 nm after 1 h incubation at 37° C. on a 96-well iMark™ Microplate Absorbance Reader (BioRad, Hercules, Calif.). Each individual compound was tested in quadruplicate wells for each concentration.

MDA-MB-231 = experiment: MTS cell proliferation assay, MDA-MB-231; format: cell-based, human; conditions: Homo sapiens, read-out: IC50 MDA-MB-231 (Table 1)
Description: Cancer cells (breast cancer cell lines MCF-7, MDA-MB-361, SKBR3 and MDA-MB-231, pancreatic cancer cell lines AsPC-1. BxPC3 and Panc-1) were seeded in 96-well plates at a density of 1000-2000 cells/well and treated with DMSO, 0.01, 0.1, 1, 5, 10, and […] of STAT3 individual inhibitors for 72 hrs. Proliferation was measured by treating cells with the 3-(4,5-dimethylthiazol-2-yl)-5-(3-carboxymethoxyphenyl)-2-(4-sulfophenyl)-2H-tetrazolium) (MTS) in a CellTiter 96t AQueous Non-Radioactive Cell Proliferation Assay kit from Promega, Madison, Wis., USA). Absorbance of all wells was determined by measuring OD at 550 nm after 1 hr incubation at 37° C. on a 96-well iMark™ Microplate Absorbance Reader (BioRad, Hercules, Calif.).
In Vitro Determination of Effects of Synthesized Compounds on Cancer Cell Proliferation. Cancer cells (breast cancer cell lines MCF-7 and MDA-MB-231, pancreatic cancer cell lines AsPC-1 and Panc-1) were seeded in 96-well plates at a density of 2×10^3 cells/well and treated with DMSO, 0.01, 0.1, 1, 5, 10, and 100 μM of individual STAT3 inhibitors for 72 h. Proliferation was measured by treating cells with the 3-(4,5-dimethylthiazol-2-yl)-5-(3-carboxymethoxyphenyl)-2-(4-sulfophenyl)-2H-tetrazolium) (MTS) in a CellTiter 96t Aqueous Non-Radioactive Cell Proliferation Assay kit (Promega, Madison, Wis., USA). Absorbance of all wells was determined by measuring OD at 550 nm after 1 h incubation at 37° C. on a 96-well iMark™ Microplate Absorbance Reader (BioRad, Hercules, Calif.). Each individual compound was tested in quadruplicate wells for each concentration. […]

[1] = Homo sapiens, MCF7, 72 h; read-out: IC50 MCF-7 (Table 1)
[2] = MCF-7, 48 hr, μM concentrations
[3] = MDA-MB-231, ER-negative breast cancer, 72 hrs, >10 = no effect
[4] = Homo sapiens, MCF7, 72 h, read-out: IC50 MCF-7 (Table 1)

SMILES | IC50 (MCF-7; [1]) [µM] | IC50 (MDA-MB-231; [3]) [µM] | inhibition on breast cancer cell proliferation (FIG. 1) (MCF-7; [2]) | IC50 (MCF-7; [4]) [µM] | IC50 (MDA-MB-231; MDA-MB-231, 72 h) [µM]
O=C(Nc1ccc2c(c1)S(=O)(=O)C=C2)c1cccnc1 [HJC-3-76, N-(1,1-Dioxo-1H-1λ^6-benzo[b]thiophen-6-yl)-nicotinamide] | – | – | – | 15.3 | > 10
NCCCCOc1ccc(Cl)cc1C(=O)Nc1ccc([N+](=O)[O-])cc1Cl [HJC-4-31, 2-(4-Aminobutoxy)-5-chloro-N-(2-chloro-4-nitrophenyl)benzamide] | 3.7 | 2.37 | significant inhibition | – | –
CC(=O)N1CCN(CCOc2ccc(Cl)cc2C(=O)Nc2ccc([N+](=O)[O-])cc2Cl)CC1 [HJC-4-27, 2-[2-(4-Acetylpiperazin-1-yl)-ethoxy]-5-chloro-N-(2-chloro-4-nitrophenyl)benzamide] | > 10 | > 10 | – | – | –
O=C(Nc1ccc([N+](=O)[O-])cc1Cl)c1cc(Cl)ccc1OCCF [HJC-3-98, 5-Chloro-N-(2-chloro-4-nitro-phenyl)-2-(2-fluoro-ethoxy)benzamide] | – | – | – | > 10 | > 10
O=C(Nc1ccc2c(c1)S(=O)(=O)C=C2)c1cc(Cl)ccc1OCCF [HJC-3-99, 5-Chloro-N-(1,1-dioxo-1H-1λ^6-benzo[b]thiophen-6-yl)-2-(2-fluoroethoxy)benzamide] | – | – | – | 4 | 4.42
O=C(Nc1ccc2c(c1)S(=O)(=O)C=C2)c1cc(Cl)ccc1OCCN1CCOCC1 [HJC-3-9, 5-Chloro-N-(1,1-dioxo-1H-1λ^6-benzo[b]thiophen-6-yl)-2-(2-morpholin-4-yl-ethoxy) benzamide] | – | – | significant inhibition | 0.49 | 5.43
O=C(Nc1ccc([N+](=O)[O-])cc1Cl)c1cc(Cl)ccc1OCC(O)CO (stereo not drawn) [HJC-3-60, 5-Chloro-N-(2-chloro-4-nitrophenyl)-2-(2,3-dihydroxypropoxy)benzamide] | > 10 | > 10 | – | – | –
Nc1ccc(NC(=O)c2cc(Cl)ccc2OC2CCNCC2)c(Cl)c1 [HJC-4-23, N-(4-Amino-2-chlorophenyl)-5-chloro-2-(piperidin-4-yloxy)benzamide] | – | – | – | > 10 | > 10
CN(C)CCOc1ccc(Cl)cc1C(=O)Nc1ccc2c(c1)S(=O)(=O)C=C2 [HJC-3-69, 5-Chloro-2-(2-dimethylaminoethoxy)-N-(1,1-dioxo-1H-1λ^6-benzo[b]thiophen-6-yl) benzamide] | – | – | significant inhibition | 3.5 | 2.69
NCCOCCOc1ccc(Cl)cc1C(=O)Nc1ccc([N+](=O)[O-])cc1Cl [HJC-2-58, 2-[2-(2-Amino-ethoxy)-ethoxy]-5-chloro-N-(2-chloro-4-nitro-phenyl)benzamide] | 9.37 | 5.3 | – | – | –
CN(C)CCOc1ccc(Cl)cc1C(=O)Nc1ccc([N+](=O)[O-])cc1Cl [HJC-3-57, 5-Chloro-N-(2-chloro-4-nitro-phenyl)-2-(2-dimethylamino-ethoxy)benzamide] | – | – | – | > 10 | > 10
CC(=O)Nc1ccc(NC(=O)c2cc(Cl)ccc2OC2CCNCC2)c(Cl)c1 [HJC-4-32, N-(4-Acetylamino-2-chloro-phenyl)-5-chloro-2-(piperidin-4-yloxy)benzamide] | > 10 | > 10 | – | – | –
CC(=O)Nc1ccc2c(c1)S(=O)(=O)C=C2 [HJC-1-62, N-(1,1-Dioxo-1H-1λ^6-benzo[b]thiophen-6-yl)acetamide] | > 10 | > 10 | – | – | –
O=C(Nc1ccc([N+](=O)[O-])cc1Cl)c1cc(Cl)ccc1OCCBr [HJC-3-64, 2-(2-Bromoethoxy)-5-chloro-N-(2-chloro-4-nitrophenyl)benzamide] | – | – | – | > 10 | > 10

Second part, led by results:

IC50 (MCF-7; [1]) [µM] | IC50 (MDA-MB-231; [3]) [µM] | SMILES | inhibition on breast cancer cell proliferation (FIG. 1) (MCF-7; [2]) | IC50 (MCF-7; [4]) [µM] | IC50 (MDA-MB-231; MDA-MB-231, 72 h) [µM]
2.97 | 6.21 | O=C(Nc1ccc2c(c1)S(=O)(=O)C=C2)c1cnc2ccccc2c1 [HJC-3-91, Quinoline-3-carboxylic acid (1,1-dioxo-1H-1λ^6-benzo[b]thiophen-6-yl)amide] | significant inhibition | – | –
3.64 | > 10 | O=C(Nc1ccc2c(c1)S(=O)(=O)C=C2)c1ccnc(Br)c1 [HJC-3-95, 2-Bromo-N-(1,1-dioxo-1H-1λ^6-benzo[b]thiophen-6-yl)-isonicotinamide] | – | – | –
6.7 | > 10 | O=C(Nc1ccc2c(c1)S(=O)(=O)C=C2)c1ccccn1 [HJC-3-20, Pyridine-2-carboxylic acid (1,1-dioxo-1H-1λ^6-benzo[b]thiophen-6-yl)amide] | – | – | –
12.4 | 8.66 | O=C(Nc1ccc([N+](=O)[O-])cc1Cl)c1cc(Cl)ccc1OCCN1CCNCC1 [HJC-2-52, 5-Chloro-N-(2-chloro-4-nitro-phenyl)-2-(2-piperazin-1-yl-ethoxy)benzamide] | – | – | –
4.21 | 2.85 | O=C(Nc1ccc2c(c1)S(=O)(=O)C=C2)c1cc(Cl)ccc1OC1CCNCC1 [HJC-4-15, 5-Chloro-N-(1,1-dioxo-1H-1λ^6-benzo[b]thiophen-6-yl)-2-(piperidin-4-yloxy)benzamide] | – | – | –
> 10 | > 10 | CN1CCN(CCOc2ccc(Cl)cc2C(=O)Nc2ccc([N+](=O)[O-])cc2Cl)CC1 [HJC-3-65, 5-Chloro-N-(2-chloro-4-nitrophenyl)-2-[2-(4-methylpiperazin-1-yl)-ethoxy]benzamide] | – | – | –
5.85 | 4.97 | COc1ccc(C(=O)Nc2ccc3c(c2)S(=O)(=O)C=C3)cc1 [HJC-2-15, N-(1,1-Dioxo-1H-1λ^6-benzo[b]thiophen-6-yl)-4-methoxybenzamide] | – | – | –
3.45 | 2.71 | COc1ccc(S(=O)(=O)Nc2ccc3c(c2)S(=O)(=O)C=C3)cc1 [HJC-3-68, N-(1,1-Dioxo-1H-1λ^6-benzo[b]thiophen-6-yl)-4-methoxybenzenesulfonamide] | – | – | –
> 10 | > 10 | CS(=O)(=O)NCCOc1ccc(Cl)cc1C(=O)Nc1ccc([N+](=O)[O-])cc1Cl [HJC-4-26, 5-Chloro-N-(2-chloro-4-nitrophenyl)-2-(2-methanesulfonylaminoethoxy)benzamide] | – | – | –
> 10 | 13.8 | COC1CS(=O)(=O)c2cc(NC(=O)c3cc(-c4ccccc4)nc4ccccc34)ccc21 (stereo not drawn) [HJC-1-57, 2-Phenyl-quinoline-4-carboxylic acid (3-methoxy-1,1-dioxo-2,3-dihydro-1H-1λ^6-benzo[b]thiophen-6-yl)amide] | – | – | –
> 10 | > 10 | CS(=O)(=O)Nc1ccc(NC(=O)c2cc(Cl)ccc2OC2CCNCC2)c(Cl)c1 [HJC-4-35-2] | – | – | –
> 10 | 5.87 | CC(=O)N1CCC(Oc2ccc(Cl)cc2C(=O)Nc2ccc([N+](=O)[O-])cc2Cl)CC1 [HJC-4-22, 2-(1-Acetylpiperidin-4-yloxy)-5-chloro-N-(2-chloro-4-nitrophenyl)benzamide] | – | – | –
> 10 | > 10 | O=C(Nc1ccc([N+](=O)[O-])cc1Cl)c1cc(Cl)ccc1OCCN1CCCCC1 [HJC-3-84, 5-Chloro-N-(2-chloro-4-nitrophenyl)-2-(2-piperidin-1-yl-ethoxy)benzamide] | – | – | –
4.08 | 2.86 | CN1CCN(CCOc2ccc(Cl)cc2C(=O)Nc2ccc3c(c2)S(=O)(=O)C=C3)CC1 [HJC-3-78, 5-Chloro-N-(1,1-dioxo-1H-1λ^6-benzo[b]thiophen-6-yl)-2-[2-(4-methylpiperazin-1-yl)-ethoxy]benzamide] | – | – | –
